{
  "source": "patent US6043278A",
  "about": "“Perfluoralkyl substituted metallo-beta-lactamase inhibitors” (Isis Innovation Limited, priority 1995, dated 2000)",
  "key": {"[1]": {"target": "T1, Class B β-lactamase (B. cereus enzyme) (Bacillus cereus, UniProt P04190)", "T1 construct": "from a range of bacteria, including: Xanthomonas maltophilia, Bacillus cereus; endogenous in cells; host or cells: Bacillus cereus (enzyme purified from the bacterium)", "T1 sequence (P04190 31-257)": "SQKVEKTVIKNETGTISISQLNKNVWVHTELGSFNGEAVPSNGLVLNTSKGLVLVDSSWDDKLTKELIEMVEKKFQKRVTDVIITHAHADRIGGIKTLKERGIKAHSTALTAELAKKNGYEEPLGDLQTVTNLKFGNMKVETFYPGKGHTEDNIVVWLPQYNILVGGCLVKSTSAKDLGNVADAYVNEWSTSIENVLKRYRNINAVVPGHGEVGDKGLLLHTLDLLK", "assay": "Ki determination, initial rate of hydrolysis of reporter substrate cephalosporin C", "assay_type": "biochemical", "protocol": "(§1) Class B β-lactamases were purified according to published^4 or standard procedures from a range of bacteria, including: Xanthomonas maltophilia, Bacillus cereus, Pseudomonas aeruginosa and Aeromonas hydrophila.\n(§2) Assays for inhibition were also carried out according to published procedures^4. Kinetic experiments were typically carried out at 30° C. with 30 mM sodium cacodylate buffer, pH 6.5, containing 0.1 mM ZnCl2.\n(§3) The Ki (inhibition constant) values were determined by analysing the initial rate of hydrolysis at different inhibitor concentrations using the following reporter substrates: 30 μm nitrocefin (X. maltophilia enzyme), 200 μM imipenem (A. hydrophila), or 1 mM cephalosporin C (B. cereus and P. aeruginosa enzymes). Data analysis was carried out according to standard kinetic procedures [Felici, A. et al., Biochem. J., 291, 151-155 (1993) and references therein]."}, "[2]": {"target": "T2, Class B β-lactamase (X. maltophilia enzyme) (Stenotrophomonas maltophilia, UniProt P52700)", "T2 construct": "standard procedures from a range of bacteria, including: Xanthomonas maltophilia; endogenous in cells; host or cells: Xanthomonas maltophilia (enzyme purified from the bacterium)", "T2 sequence (P52700 34-290)": "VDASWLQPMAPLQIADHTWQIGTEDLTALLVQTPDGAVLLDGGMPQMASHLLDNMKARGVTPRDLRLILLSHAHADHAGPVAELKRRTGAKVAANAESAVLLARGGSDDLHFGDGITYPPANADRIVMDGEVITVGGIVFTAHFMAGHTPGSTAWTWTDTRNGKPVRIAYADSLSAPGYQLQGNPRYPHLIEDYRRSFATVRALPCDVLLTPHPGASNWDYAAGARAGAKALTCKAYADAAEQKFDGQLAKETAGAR", "assay": "Ki determination, initial rate of hydrolysis of reporter substrate nitrocefin", "assay_type": "biochemical, Xanthomonas maltophilia", "protocol": "as §1, §2, §3"}, "[3]": {"target": "T3, Class B β-lactamase (P. aeruginosa enzyme) (Pseudomonas aeruginosa, UniProt Q79MP6)", "T3 construct": "Bacillus cereus, Pseudomonas aeruginosa and Aeromonas hydrophila; endogenous in cells; host or cells: Pseudomonas aeruginosa (enzyme purified from the bacterium)", "T3 sequence (Q79MP6 19-246 limits assumed)": "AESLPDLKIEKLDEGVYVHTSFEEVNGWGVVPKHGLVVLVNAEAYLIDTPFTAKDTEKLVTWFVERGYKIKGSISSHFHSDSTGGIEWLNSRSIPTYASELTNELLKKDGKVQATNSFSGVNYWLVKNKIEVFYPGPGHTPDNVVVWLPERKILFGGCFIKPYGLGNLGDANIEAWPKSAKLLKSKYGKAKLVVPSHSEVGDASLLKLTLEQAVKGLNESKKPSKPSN", "assay": "Ki determination, initial rate of hydrolysis of reporter substrate cephalosporin C", "assay_type": "biochemical", "settings": "competitive inhibition; 1 mM cephalosporin C; 30° C., pH 6.5, 0.1 mM ZnCl2; read-out: Ki (inhibition constant)", "protocol": "as §1, §2, §3"}, "[4]": {"target": "T4, Class B β-lactamase (A. hydrophila enzyme) (Aeromonas hydrophila, UniProt P26918)", "T4 construct": "Bacillus cereus, Pseudomonas aeruginosa and Aeromonas hydrophila; endogenous in cells; host or cells: Aeromonas hydrophila (enzyme purified from the bacterium)", "T4 sequence (P26918 28-254)": "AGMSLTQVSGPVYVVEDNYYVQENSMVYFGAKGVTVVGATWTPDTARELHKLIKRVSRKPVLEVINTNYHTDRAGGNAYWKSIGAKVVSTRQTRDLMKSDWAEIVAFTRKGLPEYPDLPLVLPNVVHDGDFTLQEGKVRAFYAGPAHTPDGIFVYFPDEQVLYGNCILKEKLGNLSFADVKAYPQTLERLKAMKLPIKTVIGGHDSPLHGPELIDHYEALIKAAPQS", "assay": "Inhibition/inactivation kinetics, reporter substrate imipenem", "assay_type": "biochemical", "settings": "for mode of inhibition of the A. hydrophila enzyme: further kinetic analyses, no reactivation was observed; for Ki: inactivation kinetics, 200 μM imipenem, 30° C., pH 6.5, 0.1 mM ZnCl2, read-out: K = apparent binding constant between the enzyme and substrate", "protocol": "as §1, §2, §3\nCompounds 3, 4, 5, 6, 7 and 9 were also shown to be inhibitors of the A. hydrophila enzyme. […] The following kinetic parameters were obtained, where K=apparent binding constant between the enzyme and substrate and k+2 =apparent rate constant for inactivation as in the following scheme: [formula] Kinetic data for compound 3: K=6 μM, k+2 =4.3×10^-2 s^-1"}, "[5]": {"settings": "competitive inhibition, 1 mM cephalosporin C, 30° C., pH 6.5, 0.1 mM ZnCl2, read-out: Ki (inhibition constant)"}, "[6]": {"settings": "read-out: Ki (inhibition constant), competitive inhibition, 1 mM cephalosporin C, 30° C., pH 6.5, 0.1 mM ZnCl2"}},
  "note": "Where two headings read alike, the source gives them in different places.",
  "data": [
    {"smiles": "O=C(CC(=O)C(F)(F)F)c1ccccc1", "note": "[Compound 1, reference compound]", "values": [
      {"measurement": "Ki", "setting": "[1]; [5]", "value": 300, "unit": "µM"}
    ]},
    {"smiles": "O=C(COc1ccccc1)N[C@H](Cc1ccccc1)C(=O)C(F)(F)F", "note": "[Compound 2]", "values": [
      {"measurement": "Ki", "setting": "[1]; [5]", "value": 1000, "unit": "µM"}
    ]},
    {"smiles": "O=C(COc1ccccc1)N[C@@H](Cc1ccccc1)C(=O)C(F)(F)F", "note": "[Compound 3]", "values": [
      {"measurement": "Ki", "setting": "[2]", "value": 15, "unit": "µM"},
      {"measurement": "Ki", "setting": "[1]", "value": 500, "unit": "µM"},
      {"measurement": "Ki", "setting": "[3]", "value": 530, "unit": "µM"},
      {"measurement": "mode of inhibition of the A. hydrophila enzyme", "setting": "[4]", "value": "inactivators"},
      {"measurement": "Ki", "setting": "[4]", "value": 6, "unit": "µM"}
    ]},
    {"smiles": "O=C(COc1ccccc1)N[C@@H](Cc1ccccc1)[C@H](O)C(F)(F)F", "note": "[Compound 4]", "values": [
      {"measurement": "Ki", "setting": "[1]; [6]", "value": 1000, "unit": "µM"},
      {"measurement": "Ki", "setting": "[3]", "value": 900, "unit": "µM"},
      {"measurement": "mode of inhibition of the A. hydrophila enzyme", "setting": "[4]", "value": "inactivators"},
      {"measurement": "Ki", "setting": "[4]", "value": 19, "unit": "µM"}
    ]},
    {"smiles": "O=C(COc1ccccc1)N[C@H](Cc1ccccc1)[C@H](O)C(F)(F)F", "note": "[Compound 5]", "values": [
      {"measurement": "Ki", "setting": "[1]; [6]", "value": 30, "unit": "µM"},
      {"measurement": "Ki", "setting": "[3]", "value": 60, "unit": "µM"},
      {"measurement": "mode of inhibition of the A. hydrophila enzyme", "setting": "[4]", "value": "inactivators"},
      {"measurement": "Ki", "setting": "[4]", "value": 20, "unit": "µM"}
    ]},
    {"smiles": "C[C@H](NC(=O)COc1ccccc1)C(=O)C(F)(F)F", "note": "[Compound 6]", "values": [
      {"measurement": "Ki", "setting": "[2]", "value": 1.5, "unit": "µM"},
      {"measurement": "Ki", "setting": "[1]", "value": 30, "unit": "µM"},
      {"measurement": "Ki", "setting": "[3]", "value": 300, "unit": "µM"},
      {"measurement": "mode of inhibition of the A. hydrophila enzyme", "setting": "[4]", "value": "inactivators"},
      {"measurement": "Ki", "setting": "[4]", "value": 44, "unit": "µM"}
    ]},
    {"smiles": "C[C@@H](NC(=O)COc1ccccc1)C(=O)C(F)(F)F", "note": "[Compound 7]", "values": [
      {"measurement": "Ki", "setting": "[2]", "value": 3, "unit": "µM"},
      {"measurement": "Ki", "setting": "[1]", "value": 700, "unit": "µM"},
      {"measurement": "Ki", "setting": "[3]", "value": 500, "unit": "µM"},
      {"measurement": "mode of inhibition of the A. hydrophila enzyme", "setting": "[4]", "value": "inactivators"},
      {"measurement": "Ki", "setting": "[4]", "value": 11, "unit": "µM"}
    ]},
    {"smiles": "C[C@H](NC(=O)COc1ccccc1)[C@H](O)C(F)(F)F", "note": "[Compound 8]", "values": [
      {"measurement": "Ki", "setting": "[1]; [6]", "value": 300, "unit": "µM"},
      {"measurement": "Ki", "setting": "[3]", "value": 400, "unit": "µM"}
    ]},
    {"smiles": "C[C@@H](NC(=O)COc1ccccc1)[C@H](O)C(F)(F)F", "note": "[Compound 9]", "values": [
      {"measurement": "Ki", "setting": "[2]; read-out: Ki (inhibition constant), competitive inhibition, 30 μm nitrocefin, 30° C., 30 mM sodium cacodylate pH 6.5, 0.1 mM ZnCl2", "value": 35, "unit": "µM"},
      {"measurement": "Ki", "setting": "[1]; [6]", "value": 700, "unit": "µM"},
      {"measurement": "Ki", "setting": "[3]", "value": 400, "unit": "µM"},
      {"measurement": "mode of inhibition of the A. hydrophila enzyme", "setting": "[4]", "value": "inactivators"},
      {"measurement": "Ki", "setting": "[4]", "value": 217, "unit": "µM"}
    ]}
  ]
}
